Results reported in publication PMC5813964, “The enzymatic processing of α-dystroglycan by MMP-2 is controlled by two anchoring sites distinct from the active site” (PLoS ONE, 2018).
One block for each molecule: values may come before it. No end group written: not given here.

Legend:
whole MMP-2 = target: T1, whole MMP-2 (Homo sapiens, UniProt P08253); assay: MMP-2 proteolysis of fluorogenic peptide, modulation by α-DG C-term peptide; type: biochemical; conditions: global fit Eqs 1-3
T1 construct: purchased R&D System, London, UK
T1 sequence (P08253 110-660): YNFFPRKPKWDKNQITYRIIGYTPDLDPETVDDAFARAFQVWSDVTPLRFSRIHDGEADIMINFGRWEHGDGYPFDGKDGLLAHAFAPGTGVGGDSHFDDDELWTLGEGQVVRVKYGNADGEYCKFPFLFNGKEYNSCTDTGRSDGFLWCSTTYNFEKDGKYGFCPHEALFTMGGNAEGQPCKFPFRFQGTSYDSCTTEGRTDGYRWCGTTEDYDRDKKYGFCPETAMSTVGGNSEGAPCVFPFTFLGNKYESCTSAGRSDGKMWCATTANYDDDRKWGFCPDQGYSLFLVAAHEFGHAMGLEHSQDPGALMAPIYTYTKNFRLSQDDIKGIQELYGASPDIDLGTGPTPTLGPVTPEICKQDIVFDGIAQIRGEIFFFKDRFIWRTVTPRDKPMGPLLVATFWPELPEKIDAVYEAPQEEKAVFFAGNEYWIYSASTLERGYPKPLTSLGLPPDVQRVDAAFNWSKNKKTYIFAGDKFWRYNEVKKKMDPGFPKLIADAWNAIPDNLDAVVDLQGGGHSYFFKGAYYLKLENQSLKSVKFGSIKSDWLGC
Experimental: (§1) Human MMP-2 proenzyme 2 was activated by incubating 0.1 mg/ml progelatinase solution with 0.25 mM aminophenyl mercuric acid (Sigma, St. Louis, MO, USA) at 37°C for 30 minutes. Whereas human recombinant cdMMP-2 human was dissolved in a solution of 50 mM Tris/HCl (pH 7.2), 0.1M NaCl and 10 mMCaCl. […] All measurements were performed at 37°C using a solution of 50 mM Tris–HCl, 0.1 M NaCl, 10 mM CaCl2 and 0.05% Brij 35 buffered at pH 7.3.
(§2) Different concentrations of the α-DG peptide (i.e., final concentration range spanning between 0 μM and 4 μM) were incubated with 0.07 μM active MMP-2 for 30 min at 37°C to allow the interaction to occur. In the case of the cdMMP2 the kinetics were performed employing 0.06 μM cdMMP-2 at different concentration of α-DG (613–651) peptide in the range 0–2 μM. Different concentrations of MCA fluorogenic peptide (i.e: from […]) were then added to this solution. The enzymatic reaction was recorded for 30 minutes at 37°C. The initial velocities were derived from the slopes within the first 15 minutes, which is the time period during which the rate is constant and less than 10% of the substrate was degraded. This ensured a steady-state condition for the first cleavage step, and it was a prerequisite for the subsequent analysis steps.
(§3) This behavior, which envisages the presence of (at least) two binding sites for the α-DG (613–651) peptide on the catalytic domain of MMP-2, can be kinetically and thermodynamically described by the scheme reported on Fig 5; where, ^0kcat and ^0Km are the observed catalytic parameters in the absence of the peptide, Ka and Kb are the peptide dissociation constants to the free enzyme for the two binding sites, α is the interaction parameter, which quantifies the effect on Km of the α-DG(613–651) peptide binding to the first binding site (α > 1 indicates a negative effect with a decreased affinity, α < 1 a positive effect and α = 1 no effect), β is the interaction parameter which estimates the effect on kcat of the binding of α-DG(613–651) peptide to the first binding site (β > 1 indicates a positive effect with an increased rate constant, β < 1 a negative effect and β = 1 no effect).
(§4) Data reported in Figs 4 and 5 have been analyzed according to the following equation: [E0]/v=^obsKm/^obskcat⋅1/[S]+1/^obskcat (Eq 1) where [E0] is the total enzyme concentration, ν is the observed velocity (expressed as mol/s), [S] is the substrate concentration, ^obskcat and ^obsKm are the observed catalytic parameters, namely ^obskcat=^0kcat⋅(Ka⋅α+β⋅[Pept])/(Ka⋅α+[Pept]) (Eq 2) and ^obsKm=^0Km⋅α⋅(Ka⋅Kb+Kb⋅[Pept]+[Pept]^2)/Kb⋅(Ka⋅α+[Pept]) (Eq 3) where ^0kcat and ^0Km are the catalytic paramenters in the absence of peptide and all other symbols have the same meaning as described above.

[1] = target: T2, cdMMP-2 (isolated catalytic domain of MMP-2) (Homo sapiens, UniProt P08253); assay: cdMMP-2 proteolysis of fluorogenic peptide, modulation by α-DG C-term peptide; type: biochemical; conditions: pH 7.3, 37°C, global fit Eqs 1-3
T2 construct: the catalytic domain of MMP-2 (without the hemopexin-like domain) retains the capability of degrading; purchased Biomol International
Experimental: as §1, §2, §3, §4

[2] = target: human recombinant MMP-2 (whole enzyme, activated) (human)
[3] = target: human recombinant catalytic domain of MMP-2 (cdMMP-2) (human)
[4] = target: human recombinant MMP-2 (whole enzyme, activated) (human); assay: enzyme inhibition kinetics (fluorogenic substrate); peptide (0-4 μM with 0.07 μM active MMP-2; 0-2 μM with 0.06 μM cdMMP-2) incubated with the enzyme 30 min at 37°C, then MCA-Pro-Leu-Gly-Leu-DPA-Ala-Arg-NH2 added; initial velocities, global fit of Lineweaver-Burk data to a scheme with two peptide binding sites (Eqs 1-3); 50 mM Tris-HCl, 0.1 M NaCl, 10 mM CaCl2, 0.05% Brij 35, pH 7.3, 37°C
[5] = target: human recombinant catalytic domain of MMP-2 (cdMMP-2) (human); assay: as above

- ^0kcat (whole MMP-2; whole MMP-2, absence of peptide, MCA-Pro-Leu-Gly-Leu-DPA-Ala-Arg-NH2 substrate, pH 7.3, 37°C, 50 mM Tris–HCl, 0.1 M NaCl, 10 mM CaCl2, 0.05% Brij 35, λexc 325 nm, λem 398 nm): 29.6 ± 4.5 s⁻¹
- ^0Km (whole MMP-2; whole MMP-2, absence of peptide, pH 7.3, 37°C): 1.5(±0.3)×10^−6 M
- ^0Km ([1]; cd-MMP-2, absence of peptide): 1.9(±0.5)×10^−6 M
- ^0kcat ([1]; cd-MMP-2, absence of peptide): 26.1 ± 4.1 s⁻¹
Molecule: MCA-Pro-Leu-Gly-Leu-DPA-Ala-Arg-NH2 [fluorogenic substrate, reference compound]

- Kd (whole MMP-2; whole MMP-2, fluorogenic substrate, peptide 0-4 μM, 30 min preincubation at 37°C, pH 7.3, read-out: Ka (peptide dissociation constant to the free enzyme, first, high affinity non-competitive site)): 35 nM
- Kb (whole MMP-2; whole MMP-2, fluorogenic substrate, peptide 0-4 μM, 30 min preincubation at 37°C, pH 7.3, read-out: Kb (peptide dissociation constant to the free enzyme, second, lower affinity competitive active site)): 210 nM
- Kd ([1]; cd-MMP-2, fluorogenic substrate, peptide 0–2 μM, read-out: Ka (peptide dissociation constant to the free enzyme, first, high affinity non-competitive site)): 35 nM
- Kb ([1]; cd-MMP-2, fluorogenic substrate, peptide 0–2 μM, read-out: Kb (peptide dissociation constant to the free enzyme, second, lower affinity competitive active site)): 210 nM
Molecule: VGDPALVLNDIHKKIALVKKLAFAFGDRNCSTITLQNIT [α-DG (613–651) peptide]

- interaction parameter α (effect of peptide at the first site on Km of the fluorogenic substrate) [2]: 1.7
- interaction parameter β (effect of peptide at the first site on kcat for the fluorogenic substrate) [2]: 0.27
- interaction parameter β (effect of peptide at the first site on kcat for the fluorogenic substrate) [3]: 0.32
- Ka (dissociation constant, first site, higher affinity, non-competitive) [4]: 35 nM
- Kb (dissociation constant, second site, lower affinity, competitive) [4]: 210 nM
- Ka (dissociation constant, first site, higher affinity, non-competitive) [5]: 35 nM
- Kb (dissociation constant, second site, lower affinity, competitive) [5]: 210 nM
Molecule: VGDPALVLNDIHKKIALVKKLAFAFGDRNCSTITLQNIT [human α-DG (613–651) peptide]
